Results: ChEMBL document CHEMBL1126189, “Synthesis and X-ray crystallographic analysis of quinazolinone cholecystokinin/gastrin receptor ligands” (J Med Chem, 1992)

Tests used:
[1] = biological target: T1, Gastrin/cholecystokinin type B receptor (Mus musculus) (UniProt P56481); test: Evaluated for inhibition of [125I]-CCK-8S binding to cholecystokinin CCK-B receptor from mouse brain membranes […] (in vitro); settings: 10 uM
T1 sequence (whole entry): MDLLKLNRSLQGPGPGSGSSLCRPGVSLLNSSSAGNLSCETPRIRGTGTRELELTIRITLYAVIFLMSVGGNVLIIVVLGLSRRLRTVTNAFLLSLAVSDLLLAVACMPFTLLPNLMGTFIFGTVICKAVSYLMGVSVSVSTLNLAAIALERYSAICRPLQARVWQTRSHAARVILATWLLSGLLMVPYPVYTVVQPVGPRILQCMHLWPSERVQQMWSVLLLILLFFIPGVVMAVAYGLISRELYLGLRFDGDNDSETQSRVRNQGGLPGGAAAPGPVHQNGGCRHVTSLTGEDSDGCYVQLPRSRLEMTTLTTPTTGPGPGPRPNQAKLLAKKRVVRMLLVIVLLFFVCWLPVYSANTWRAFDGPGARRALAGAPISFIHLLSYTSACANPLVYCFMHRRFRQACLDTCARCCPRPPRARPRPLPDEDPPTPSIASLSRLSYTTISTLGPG

[2] = biological target: T2, Gastrin/cholecystokinin type B receptor (Mus musculus, UniProt P56481); test: Evaluated for inhibition of [125I]CCK-8S binding to cholecystokinin CCK-B receptor from mouse brain membranes […] (in vitro)
T2 sequence (P56481 whole entry): T1 sequence (whole entry)

Row | SMILES | inhibition [1] | IC50 [2]
1 | O=c1c2ccccc2nc(CCCc2c[nH]c3ccccc23)n1-c1ccccc1 | 20% | –
2 | O=c1c2ccccc2nc(Cc2ccccc2)n1-c1ccccc1 | 6% | –
3 | CC(C)Oc1cccc(-n2c(CC(C)c3c[nH]c4ccccc34)nc3ccccc3c2=O)c1 (centres undefined) | – | 70 nM
4 | CC(C)Oc1cccc(-n2c(/C=C/c3c[nH]c4ccc(Br)cc34)nc3ccccc3c2=O)c1 | – | 1400 nM
5 | CC(C)Oc1cccc(-n2c(C(C)Cc3c[nH]c4ccccc34)nc3ccccc3c2=O)c1 (centres undefined) | – | 9100 nM
6 | O=c1c2ccccc2nc(Cc2c[nH]c3ccccc23)n1-c1ccccc1 | 36% | –
7 | O=c1c2ccccc2nc(CCc2ccccc2)n1-c1ccccc1 | 27% | –
8 | O=c1c2ccccc2nc(CCCc2ccccc2)n1-c1ccccc1 | 21% | –
9 | CC(C)Oc1cccc(-n2c(/C=C/c3c[nH]c4ccccc34)nc3ccccc3c2=O)c1 | – | 430 nM
